Tests used:
[1] = system: FIGO stage III-IV ovarian, fallopian and peritoneal cancer; experiment: observational study: progression-free survival by in vitro response, patients treated with carboplatin + paclitaxel after cytoreductive surgery; type: in vivo, human; settings: patients treated with C+P; for hazard ratio of disease progression, in vitro resistant vs S+I: univariate
Excerpt: Women with FIGO stage III-IV ovarian, fallopian and peritoneal cancer were enrolled in an observational study and received in vitro chemoresponse testing between 2006 and 2010. Two hundred seventy-six (276) patients treated with carboplatin (C)+paclitaxel (P) following cytoreductive surgery were included in this analysis. Tumor response to C or P was classified into one of three categories according to assay response score: sensitive (S), intermediately sensitive (I), and resistant (R). Patient clinical information and progression-free survival (PFS) were retrospectively collected. Association of assay drug response with […] was analyzed using Kaplan-Meier procedure and Cox regression model.

[2] = system: tumor cells cultured from primary ovarian cancer specimens; experiment: in vitro chemoresponse assay (ChemoFx), AUC7 drug response score; type: cell-based, human; settings: for share of tumors exhibiting in vitro resistance: AUC7 score >75th rank, patients of the observational study; for AUC (first seven doses) of the 25% of historical dose response curves with the highest scores (resistant cut-off) / AUC (first 7 doses) of the 25% of historical dose response curves with the lowest scores (sensitive cut-off): sum of survival fractions over doses 1-7, more than 2,000 specimens; for AUC (first 7 doses) of the 25% of historical dose response curves with the lowest scores (sensitive cut-off): smaller score = more sensitive
Protocol: Briefly, in certain embodiments, cohesive multicellular particulates (explants) are prepared from a patient's tissue sample (e.g., a biopsy sample or surgical specimen) using mechanical fragmentation. This mechanical fragmentation of the explant may take place in a medium substantially free of enzymes that are capable of digesting the explant. Some enzymatic digestion may take place in certain embodiments. Generally, the tissue sample is systematically minced using two sterile scalpels in a scissor-like motion, or mechanically equivalent manual or automated opposing incisor blades. This cross-cutting motion creates smooth cut edges on the resulting tissue multicellular particulates. The tumor particulates each measure from about 0.25 to about 1.5 mm^3, for example, about 1 mm^3.
After the tissue sample has been minced, the particles are plated in culture flasks. The number of explants plated per flask may vary, for example, between one and 25, such as from 5 to 20 explants per flask. For example, about 9 explants may be plated per T-25 flask, and 20 particulates may be plated per T-75 flask. For purposes of illustration, the explants may be evenly distributed across the bottom surface of the flask, followed by initial inversion for about 10-15 minutes. The flask may then be placed in a non-inverted position in a 37° C. CO2 incubator for about […], Flasks are checked regularly for growth and contamination. Over a period of a few weeks a cell monolayer will form. Further, it is believed (without any intention of being bound by the theory) that tumor cells grow out from the multicellular explant prior to stromal cells. Thus, by initially maintaining the tissue cells within the explant and removing the explant at a predetermined time (e.g., at about 10 to about 50 percent confluency, or at about 15 to about 25 percent confluency), growth of the tumor cells (as opposed to stromal cells) into a monolayer is facilitated. In certain embodiments, the tumor explant may be agitated to substantially release tumor cells from the tumor explant, and the released cells cultured to produce a cell culture monolayer. The use of this procedure to form a cell culture monolayer helps maximize the growth of representative tumor cells from the tissue sample.
A panel of active agents may then be screened using the cultured cells. Generally, the agents are tested against the cultured cells using plates such as microtiter plates. For the chemosensitivity assay, a reproducible number of cells is delivered to a plurality of wells on one or more plates, preferably with an even distribution of cells throughout the wells. For example, cell suspensions are generally formed from the monolayer cells before substantial phenotypic drift of the tumor cell population occurs. The cell suspensions may be, without limitation, about 4,000 to 12,000 cells/ml, or may be about 4,000 to 9,000 cells/ml, or about 7,000 to 9,000 cells/ml. The individual wells for chemoresponse testing are inoculated with the cell suspension, with each well or “segregated site” containing about 10^2 to 10^4 cells. The cells are generally cultured in the segregated sites for about 4 to about 30 hours prior to contact with an agent.
The efficacy of each agent in the panel is determined against the patient's cultured cells, by determining the viability of the cells (e.g., number of viable cells). For example, at predetermined intervals before, simultaneously with, or beginning immediately after, contact with each agent or combination, an automated cell imaging system may take images of the cells using one or more of visible light, UV light and fluorescent light. Alternatively, the cells may be imaged after about 25 to about 200 hours of contact with each treatment. The cells may be imaged once or multiple times, prior to or during contact with each treatment. Of course, any method for determining the viability of the cells may be used to assess the efficacy of each treatment in vitro. […]

[3] = grouped by in vitro response to the named drug

Row | Structure (SMILES) | hazard ratio of disease progression, in vitro resistant vs S+I [1] | share of tumors exhibiting in vitro resistance [2] [%] | AUC (first seven doses) of the 25% of historical dose response curves with the highest scores (resistant cut-off) [2] | AUC (first 7 doses) of the 25% of historical dose response curves with the lowest scores (sensitive cut-off) [2] | hazard ratio of disease progression, in vitro resistant vs S+I, multivariate analysis ([1]; controlled for clinical covariates) | median PFS, tumors intermediately sensitive (I) in vitro [1, 3] [months] | median PFS, tumors resistant (R) in vitro [1, 3] [months] | median PFS, tumors sensitive (S) in vitro [1, 3] [months]
1 | CC(=O)O[C@H]1C(=O)[C@@]2(C)[C@H]([C@H](OC(=O)c3ccccc3)[C@]3(O)C[C@H](OC(=O)[C@H](O)[C@@H](NC(=O)c4ccccc4)c4ccccc4)C(C)=C1C3(C)C)[C@]1(OC(C)=O)CO[C@@H]1C[C@@H]2O [paclitaxel, Paclitaxel] | 1.43 | 22 | ≥ 6.0 | ≤ 5.0 | – | – | – | –
2 | N.N.O=C([O-])C1(C(=O)[O-])CCC1.[Pt+2] [carboplatin, Carboplatin] | 1.87 | 19 | ≥ 5.5 | ≤ 4.3 | 1.71 | 16.6 | 11.8 | 17.4

— patent US20140072999A1, “METHODS OF SIMULATING CHEMOTHERAPY FOR A PATIENT” (Precision Therapeutics, Inc., priority 2008, published 2014)
